From patent EP0194905A1, “5',5'''-P1,P4-diadenosine-tetraphosphate alpha-,beta-phosphorylase and its use in the preparation of isotope-labelled nucleotides” (priority 1985, dated 1986)
Blank lines part the entries; values can stand above or below the molecule they belong to.

What was measured:
Ap4A-phosphorylase [1] = target: T1, Ap4A-phosphorylase (Saccharomyces cerevisiae, UniProt P16550); assay: Ap4A-phosphorylase activity: initial rates of phosphorolysis of Ap4A and related substrates (PEI-cellulose TLC, radioactivity); assay type: biochemical; conditions: for conversion de l'Ap4A when phosphate is replaced: 10 mM in place of phosphate, 500 µM MnCl2 or 5 mM MgCl2
T1 construct: l'Ap4A phosphorylase est constituée d'une seule chaîne; endogenous in cells; host or cells: Saccharomyces cerevisiae yeast cells; enzyme purified by ammonium sulfate, DEAE-Sephacel, Sephadex G-100, hydroxyapatite and Sephadex G-75 superfine
T1 sequence (P16550 1-321): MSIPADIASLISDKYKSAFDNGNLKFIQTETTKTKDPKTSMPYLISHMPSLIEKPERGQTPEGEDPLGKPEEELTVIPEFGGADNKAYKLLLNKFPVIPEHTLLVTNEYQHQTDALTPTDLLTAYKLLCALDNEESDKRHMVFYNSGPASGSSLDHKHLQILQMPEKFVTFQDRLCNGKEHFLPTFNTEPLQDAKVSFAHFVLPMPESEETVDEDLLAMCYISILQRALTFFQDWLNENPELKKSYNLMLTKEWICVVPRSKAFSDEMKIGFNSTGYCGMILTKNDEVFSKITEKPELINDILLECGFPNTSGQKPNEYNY
Method: (§1) L'activité de l'Ap4A-phosphorylase a été déterminée à 37°C. Le mélange d'incubation standard contenait, dans un volume final de 25 ou 50 µl, du tampon 50 mM acide 4-(2-hydroxyéthyl)-1-pipérazine éthane sulfonique (Hepes)/KOH (pH 8,2), 1 mM 2-mercaptoéthanol, 2 % de glycérol, 500 µM MnCl2, […], 500 uM de [^3H]Ap4A (1 pmol = 20 cpm), de la sérum-albumine bovine (0,4 mg/ml) et une solution d'enzyme diluée de façon appropriée en présence de 2 mg/ml de sérum-albumine bovine. Dans certains cas, l'activité a été suivie à l'aide de [^32P]K2HPO4.
Pour mesurer les vitesses initiales, de phosphorolyse, on a déposé des prélèvements de 2 µl sur des couches minces de polyéthylèneimine-cellulose contenant un indicateur fluorescent (foumies par MERCK) après 2, 4, 8 et 16 min de réaction.
Des standards d'Ap4A et d'ADP ont été ajoutés et les chromatogrammes ont été développés tout d'abord pendant 15 min dans le méthanol à 75 %, puis pendant 1 h dans du chlorure de lithium 0,85 M. Les valeurs Rf des composés standards étaient respectivement de 0,15 (Ap4A) et 0,25 (ADP), la valeur Rf du phosphate était de 0,55. Les taches d'ADP visualisées sous lumière ultraviolette ont été découpées et immergées dans 5 ml de mélange de scintillation et la radioactivité a été mesurée. Au cours des différentes étapes de purification, l'enzyme a été testée en l'absence de radioactivité; les fractions actives ont été afors directement identifiées sur les chromatogrammes sous lumière ultraviolette.
La dégradation enzymatique de l'Ap4A par l'enzyme selon l'invention, c'est-à-dire l'Ap4A-phosphorylase, a été caractérisée par identification des produits de ladite réaction de dégradation par co-migration avec des composés standards authentiques sur des couches minces de polyéthylèneimine-cellulose. Cette identification a été confirmée sur une colonne de Lichrosorb RP-18 (MERCK) en utilisant un système HPLC (chromatographie liquide haute performance) avec une élution isocratique par du phosphate de potassium 25 mM, pH 5,3 selon la méthode de BREVET et al. décrite dans J.Biol.Chem. (1982), 257. 14613-14615. La colonne de chromatographie a été utilisée avec une pompe modèle 112, un injecteur modèle 210 et un détecteur d'absorbance modèle 160 (matériel BECKMAN), en opérant à 254 nm avec une sensibilité de 0,002 unité d'absorbance pleine échelle.

Ap4A-phosphorylase [2] = target: T1, Ap4A-phosphorylase; assay: Effect of divalent metal ions on initial rates of Ap4A phosphorolysis; assay type: biochemical
Method: Les vitesses initiales de la phosphorolyse de l'Ap4A ont été mesurées dans un milieu contenant 50 mM Hepes/KOH (pH 8,2); 1 mM de 2-mercaptoéthanol; 2 % de glycérol et 0,4 mg/ml de sérum-albumine bovine, 5 mM K2HPO4; 500 uM [^3H] Ap4A et différentes concentrations de chlorures de manganèse, de magnésium, de calcium, de cobalt ou de cadmium.
Les résultats obtenus sont indiqués sur le graphe de la figure 2 annexée sur lequel on a porté en ordonnées les vitesses initiales de phosphorolyse de l'Ap4A exprimées en pourcentages de la vitesse observée avec 500 uM MnCl2-(36 s-') et en abscisses la concentration en ions métalliques exprimée en mM.
Les différentes courbes correspondent respectivement aux chlorures ci-après : courbe A (O - O) = MnCl2 [formula] [formula] [formula] [formula]

[3] = substrate: Nc1ncnc2c1ncn2[C@@H]1O[C@H](COP(=O)(O)OS(=O)(=O)O)[C@@H](O)[C@H]1O; assay: purified protein, by the assay type; conditions: other: NDP-P* exchange at optimum pH, 37°C
[4] = substrate: Nc1ncnc2c1ncn2[C@@H]1O[C@H](COP(=O)(O)OP(=O)(O)OP(=O)(O)OP(=O)(O)OC[C@H]2O[C@@H](n3cnc4c(N)ncnc43)[C@H](O)[C@@H]2O)[C@@H](O)[C@H]1O; assay: Ap4A-phosphorylase activity: initial rates of phosphorolysis of Ap4A and related substrates (PEI-cellulose TLC, radioactivity); assay type: biochemical, Saccharomyces cerevisiae; conditions: other: 37°C, 50 mM Hepes/KOH pH 8,2, 500 µM MnCl2, 10 mM K2HPO4, 1 mM 2-mercaptoéthanol, 2 % glycérol, pH 8.2
Method: as §1
Pour mesurer les vitesses initiales, de phosphorolyse, on a déposé des prélèvements de 2 µl sur des couches minces de polyéthylèneimine-cellulose contenant un indicateur fluorescent (foumies par MERCK) après 2, 4, 8 et 16 min de réaction. […]
La dégradation enzymatique de l'Ap4A par l'enzyme selon l'invention, c'est-à-dire l'Ap4A-phosphorylase, a été caractérisée par identification des produits de ladite réaction de dégradation par co-migration avec des composés standards authentiques sur des couches minces de polyéthylèneimine-cellulose. […] La colonne de chromatographie a été utilisée avec une pompe modèle 112, un injecteur modèle 210 et un détecteur d'absorbance modèle 160 (matériel BECKMAN), en opérant à 254 nm avec une sensibilité de 0,002 unité d'absorbance pleine échelle.

[5] = substrate: O=c1ccn([C@@H]2O[C@H](COP(=O)(O)OP(=O)(O)O)[C@@H](O)[C@H]2O)c(=O)[nH]1; assay: NDP-P* exchange reaction catalysed by Ap4A-phosphorylase; assay type: biochemical, Saccharomyces cerevisiae; conditions: other: NDP-P* exchange at optimum pH, 37°C
Description: (§2) On a estimé les constantes de Michaelis Km et les vitesses d'échange pour différents NDP au pH optimum, lequel varie en fonction des substrats. Les résultats obtenus sont rassemblés dans le tableau Il ci-après ainsi que les conditions expérimentales.

[6] = substrate: Nc1ccn([C@@H]2O[C@H](COP(=O)(O)OP(=O)(O)O)[C@@H](O)[C@H]2O)c(=O)n1; assay: as above; assay type: biochemical, Saccharomyces cerevisiae; conditions: other: NDP-P* exchange at optimum pH, 37°C
Description: as §2

[7] = substrate: Nc1ncnc2c1ncn2[C@@H]1O[C@H](COP(=O)(O)OP(=O)(O)O)[C@@H](O)[C@H]1O; assay: as above; assay type: biochemical, Saccharomyces cerevisiae; conditions: other: NDP-P* exchange at optimum pH, 37°C
Description: as §2

[8] = substrate: Nc1nc2c(ncn2[C@@H]2O[C@H](COP(=O)(O)OP(=O)(O)O)[C@@H](O)[C@H]2O)c(=O)[nH]1; assay: as above; assay type: biochemical, Saccharomyces cerevisiae; conditions: other: NDP-P* exchange at optimum pH, 37°C
Description: as §2

Molecule: MnCl2
- vitesse initiale de phosphorolyse de l'Ap4A (Ap4A-phosphorylase [2]; 500 uM MnCl2, 5 mM K2HPO4, 500 uM [3H]Ap4A, pH 8,2 (100 % reference of figure 2)): 36 s-'
- activity of metal ions in supporting phosphorolyse de l'Ap4A (Ap4A-phosphorylase [2]; chlorides of Mn, Mg, Ca, Co, Cd at various concentrations (figure 2)): les plus actifs

Molecule: sulfate
- conversion de l'Ap4A when phosphate is replaced (Ap4A-phosphorylase [1]): aucune conversion

B1: Ap4A-phosphorylase (Saccharomyces cerevisiae S288C) (protein)
chain: MSIPADIASLISDKYKSAFDNGNLKFIQTETTKTKDPKTSMPYLISHMPSLIEKPERGQTPEGEDPLGKPEEELTVIPEFGGADNKAYKLLLNKFPVIPEHTLLVTNEYQHQTDALTPTDLLTAYKLLCALDNEESDKRHMVFYNSGPASGSSLDHKHLQILQMPEKFVTFQDRLCNGKEHFLPTFNTEPLQDAKVSFAHFVLPMPESEETVDEDLLAMCYISILQRALTFFQDWLNENPELKKSYNLMLTKEWICVVPRSKAFSDEMKIGFNSTGYCGMILTKNDEVFSKITEKPELINDILLECGFPNTSGQKPNEYNY
notes: l'Ap4A phosphorylase est constituée d'une seule chaîne; endogenous in cells; host or cells: Saccharomyces cerevisiae yeast cells; enzyme purified by ammonium sulfate, DEAE-Sephacel, Sephadex G-100, hydroxyapatite and Sephadex G-75 superfine
- Km [3]: 500 µM
- Km [4]: 60 µM
- Km [5]: 3700 µM
- Km [6]: 2800 µM
- Km [7]: 740 µM
- Km [8]: 700 µM

More lines, now with the values ahead:

- substrat de l'Ap4A-phosphorylase (behaviour as substrate) (Ap4A-phosphorylase [1]; compounds structurally related to Ap4A, in presence of phosphate): ne soient pas des substrats
Molecule: Nc1ncnc2c1ncn2[C@@H]1O[C@H](COP(=O)(O)OP(=O)(O)OP(=O)(O)OP(=O)(O)O)[C@@H](O)[C@H]1O [p4A, Adénosine tétraphosphate]

- Km (Ap4A-phosphorylase [1]; phosphorolysis of Ap4A, read-out: Km du phosphate): 1000 µM
Molecule: phosphate

- conversion de l'Ap4A when phosphate is replaced (Ap4A-phosphorylase [1]): aucune conversion
Molecule: pyrophosphate
